Values of other authors in US20220088278A1, “Covered Stent For Local Drug Delivery” (BIOTRONIK AG, priority 2019, published 2022).

Tested on: main bile duct of pancreatic cancer patients
Settings: thirty-six pancreatic cancer patients

Q: For `CC(=O)O[C@H]1C(=O)[C@@]2(C)[C@H]([C@H](OC(=O)c3ccccc3)[C@]3(O)C[C@H](OC(=O)[C@H](O)[C@@H](NC(=O)c4ccccc4)c4ccccc4)C(C)=C1C3(C)C)[C@]1(OC(C)=O)CO[C@@H]1C[C@@H]2O` [paclitaxel], which “duct patency duration versus covered stent without drug” value is on record?
A: did not significantly differ
